Test results taken from patent publication US11584712B2, “Alkylamine-substituted perthiocarbamates as dual precursors to hydropersulfide and carbonyl sulfide” (The Johns Hopkins University, priority 2020, dated 2023).

Legend:
[1] = RSSH generation and quantification of cyclic ureas by UPLC-MS with HPE-IAM or NEM trap; assay type: physicochemical
Description: Precursor 1a was dissolved in DMSO to afford a 1 mM stock solution. Similarly, HPE-IAM and N-ethyl maleimide (NEM) were independently dissolved in DMSO to obtain 50 mM stock solutions. To a 20 mL scintillation vial, HPE-IAM or NEM (30 μL, 50 mM) was added in pH 7.4 ammonium bicarbonate buffer (2.94 mL) containing the DTPA (100 μM). The resulting solution was pre-incubated at 37° C. for 10 min. Precursor 1a (30 μL, 1 mM) was then added into the mixture and incubated for 15 min at 37° C. An aliquot of the reaction mixture (500 μL) was withdrawn, 4-hydroxyphenylacetamide (10 μM) was added as internal standard, and analyzed using UPLC-MS as follows: Mobile phase: 0-1 min 90% water+0% ACN+10% formic acid (0.1%); 1-7.5 min gradient up to 10% water+80% ACN+10% formic acid (0.1%); 7.5-8.4 min 10% water+80% ACN+10% formic acid (0.1%); 8.4-8.5 min gradient up to 90% water+0% ACN+10% formic acid (0.1%), 8.5-10 min 90% water+0% ACN+10% formic acid (0.1%). Flow rate=0.3 mL/min. […] These studies were conducted at least in triplicate and representative spectra are presented.
Precursors 7a-d (10 μM) were independently incubated with HPE-IAM (500 μM) in pH 7.4 ammonium bicarbonate buffer (50 mM) containing DTPA (100 μM) at 37° C. The reaction mixture (500 μL) was analyzed using UPLC-MS. To quantify 2a-d generated from these precursors, a calibration curve of each individual cyclic urea with known concentrations was independently generated.
Precursor 1a was dissolved in DMSO to afford a 1 mM stock solution. Similarly, HPE-IAM was dissolved in DMSO to obtain a 50 mM stock solution. To a 20 mL scintillation vial, HPE-IAM (30 μL, 50 mM) was added in pH 7.4 ammonium bicarbonate buffer (2.94 mL) containing the DTPA (100 μM). The resulting solution was pre-incubated at 37° C. for 10 min. Precursor 1a (30 μL, 1 mM) was then added into the mixture and incubated for 15 min at 37° C. An aliquot of the reaction mixture (500 μL) was withdrawn and analyzed using UPLC-MS as follows: Mobile phase: 0-1 min 90% water+0% ACN+10% formic acid (0.1%); 1-7.5 min gradient up to 10% water+80% ACN+10% formic acid (0.1%); 7.5-8.4 min 10% water+80% ACN+10% formic acid (0.1%); 8.4-8.5 min gradient up to 90% water+0% ACN+10% formic acid (0.1%), 8.5-10 min 90% water+0% ACN+10% formic acid (0.1%). Flow rate=0.3 mL/min. The mass signals for product of RSSH trapping with HPE-IAM were obtained via deconvolution using MassLynx 4.1 software. These studies were conducted at least in triplicate and representative spectra are presented.
Precursors 7a-d (10 μM) were independently incubated with HPE-IAM (500 μM) in pH 7.4 ammonium bicarbonate buffer (50 mM) containing DTPA (100 μM) at 37° C. This reaction mixture was analyzed by UPLC-MS as follows: Mobile phase: 0-1 min 90% water+0% ACN+10% formic acid (0.1%); 1-7.5 min gradient up to 10% water+80% ACN+10% formic acid (0.1%); 7.5-8.4 min 10% water+80% ACN+10% formic acid (0.1%); 8.4-8.5 min gradient up to 90% water+0% ACN+10% formic acid (0.1%), 8.5-10 min 90% water+0% ACN+10% formic acid (0.1%). Flow rate=0.3 mL/min. To quantify 2a-d generated from these precursors, a calibration curve of each individual cyclic urea with known concentrations was independently generated.

[2] = RSSH generation in the presence of N-acetyl cysteine by UPLC-MS; assay type: physicochemical; conditions: precursor 100 μM, NAC 500 μM, pH 7.4 ammonium bicarbonate buffer with DTPA, 37° C.
Description: […] The resulting mixture was incubated at 37° C. An aliquot (200 μL) of reaction mixture was withdrawn at specified time points and quenched with 1% formic acid (200 μL). 3-Amino-benzoic acid (50 μM) was added to each sample as internal standard prior to UPLC-MS analysis. To quantify 2a-d generated from these precursors, a calibration curve for each individual cyclic urea with known concentrations was independently generated.
[…] The resulting mixture was incubated at 37° C. An aliquot ([…]) of reaction mixture was withdrawn at specified time points and quenched with 1% formic acid (200 μL). 3-amino-benzoic acid (50 μM) was added to each sample as internal standard prior to UPLC-MS analysis. To quantify 2a-d generated from these precursors, the calibration curve of each individual cyclic urea with known concentrations was independently generated.

[3] = Kinetics of RSSH release from precursors monitored by HPLC (HPE-IAM trapping); assay type: physicochemical; conditions: precursor 100 μM, HPE-IAM 5 mM, pH 7.4 phosphate buffer with DTPA, 37° C.
Description: (§1) Precursors 7a-d were dissolved in DMSO to afford 10 mM stock solutions. HPE-IAM was dissolved in DMSO to obtain a 100 mM stock solution. […] This solution was pre-incubated for 10 min at 37° C. and then precursor 7a-d (30 μL, 10 mM) were independently added into the mixture. The resulting solution was incubated at 37° C. At different time points, an aliquot of 200 μL was taken and quenched with 200 μL […] solution. These samples were stored at 0° C. until HPLC analysis was performed. The sample (20 μL) was injected into a high-performance liquid chromatography (HPLC) equipped with Phenomenex C-18 reverse phase column (250 mm×4.6 mm, 5 μm). HPLC Method: mobile phase A (H2O) and mobile phase B (ACN), flow rate: 1 mL/min, run time: 20 min, the gradient elution method: 10% to 40% B from 0 to 12 min, 40% to 80% B from 12 to 20 min. The elution was monitored by a UV detector at 275 nm. A calibration curve was generated using RSS-HPE-AM 9 to quantify RSSH generation from 7a-d.
as §1, with “by a variable UV detector” for “by a UV detector”

[4] = COS release using membrane inlet mass spectrometry (MIMS); assay type: physicochemical; conditions: precursor 50 μM, NAC 0.25 mM (5 equiv.), pH 7.4 phosphate buffer saline with DTPA, 37° C.
Description: (§2) COS was analyzed using a Hiden HPR-40 MIMS system with a sample cell and membrane probe that have been optimized to detect gases dissolved in aqueous solution as described previously. Cline et al., 2011. A stock solution of N-acetyl-cysteine (25 mM) was prepared in DI water. RSSH precursor stock solutions (5 mM) were prepared in DMSO. These solutions were degassed by purging with nitrogen for 10 min before COS release analysis. Typically, 20 mL phosphate buffer solution (10 mM) was added to the sample cell, degassed and purged with a continuous flow of argon for 15 min. N-acetyl cysteine (200 μL, 25 mM) and RSSH precursor (200 μL, 5 mM) were then injected using a gas tight syringe and ion current at m/z 60 (COS^+) were collected for 2 h (source pressure was approximately 1×10^−7 to 5×10^−7 Torr).
as §2, with “(COS*)” for “(COS^+)”

H9c2 cells = test: Cytotoxicity study with SYTOX Green nucleic acid stain; assay type: cell-based, rat; conditions: 24 h exposure, 0-150 μM
Description: H9c2(2-1) embryonic rat heart myoblasts were obtained from the American Type Culture Collection. Cells were grown in Dulbecco's […] (DMEM), supplemented with fetal bovine serum (FBS) 10%, penicillin 100 U/mL and streptomycin 100 μg/mL. They were propagated in T75-flasks, split before reaching 70-80% confluence (usually every day or every second day), and used within 11 passages. Cells were passaged to tissue culture treated 96-well microtiter plates at the specified density in 180 μL volumes and incubated for 24 h.
Cells were seeded at a density of 1×10^4 cells/well. […] Then, 100 μL of media containing 3 μM SYTOX™ Green nucleic acid stain (Invitrogen) was added and the cells were incubated for 2 h before fluorescence readings were obtained at 485Ex/538Em (Step 1). Finally, an additional 100 μL of media containing 3 μM SYTOX™ and 0.2% Triton X-100 was added in order to permeabilize all cells and incubated for 1 h before fluorescence values measured (Step 2). The relative % cells surviving was calculated as a 100% minus the ratio of the fluorescence value of Step 1 over Step 2 (% cells surviving=100%−(FL538 (Step 1)/FL538(Step 2)).
Cells were seeded at a density of 1×10^4 cells/well. […] The relative % cells surviving was calculated as a 100% minus the ratio of the fluorescence value of Step 1 over Step 2 (% cells surviving=100%−(FL538 (Step 1)/FL538(Step 2)).

## CNCCN(C)C(=O)SSCC(NC(C)=O)C(=O)OC (stereo not shown) [Precursor 1a, 2-(((2-Acetamido-3-methoxy-3-oxopropyl)disulfannecarbonyl)(methyl)amino)-N-methylethan-1-aminium]
[1]; NEM 50 equiv., pH 7.4 buffer
  yield of byproduct 2a: 74%
[1]; precursor 10 μM, HPE-IAM 500 μM (50 equiv.), pH 7.4 ammonium bicarbonate buffer, 37° C.
  yield of cyclic urea byproduct: 52%
[1]; precursor 10 μM, NEM 500 μM, pH 7.4 ammonium bicarbonate buffer, 37° C., 15 min
  byproduct 2a formation: 7.4 ± 0.2 µM

## COC(=O)C(NC(C)=O)C(C)(C)SSC(=O)N(C)CCCN (stereo not shown) [Precursor 7d, 3-(((3-acetamido-4-methoxy-2-methyl-4-oxobutan-2-yl)disulfannecarbonyl)(methyl)amino)propan-1-aminium]
[2]
  Byproduct % (yield of cyclic urea 2a-d): 5.9 ± 0.4%
[3]
  Hydropersulfide Yield (%): 82 ± 1%
[4]
  COS release (m/z=60 signal): produce mainly COS

## CN1CCNC1=O [byproduct 2b, 1-methylimidazolidin-2-one]
H9c2 cells
  cytotoxicity toward H9c2 cells: no toxicity
